Patent publication US7393937B2, “N-acetylglucosamine derivatives and use thereof” (Kao Corporation, priority 2002, dated 2008)

Key:
cultured epidermal cells = details: 5 mmol/L; independently from cell proliferation; cited from earlier work
[1] = tested on: Normal human epidermal cells; experiment: Test Example 2: hyaluronic acid production promotion in normal human epidermal cells; type: cell-based; details: 48-hour culture, FIG. 3
Excerpt: Normal human epidermal cells (manufactured by Kurabo Industries Ltd.) were inoculated into 24-well plates and cultured in a culture medium for proliferation to the confluent density, and then 2-acetamido-1,3,4,6-tetra-O-acetyl-2-deoxy-β-D-glucopyranoside represented by formula (17) to a final concentration of 100 μmol/L, N-acetylglucosamine derivative obtained in Production Example 9 at a final concentration of 1 mmol/L, and N-acetylglucosamine derivatives obtained in Production Examples 10 to 12 at a final concentration of 100 mmol/L were added. After 48-hour culture from the addition, the amount of hyaluronic acid released into the culture medium was measured. The measurement of the hyaluronic acid was carried out by using a commercially available hyaluronic acid measurement kit (manufactured by Chugai Pharmaceutical Co., Ltd.).

[2] = 100 mmol/L (so in the source), 1/10 concentration of N-acetylglucosamine

## CC(=O)N[C@H]1C(O)O[C@H](CO)[C@@H](O)[C@@H]1O (stereo partly drawn) [N-acetylglucosamine]
Cultured epidermal cells
  promotion of hyaluronic acid production: about 1.5 times

## CCOC1OC(COC(C)=O)C(OC(C)=O)C(OC(C)=O)C1NC(C)=O [Production Example 9, ethyl(2-acetamido-3,4,6-tri-O-acetyl-2-deoxy)β-D-glucopyranoside]
[1]; 1 mmol/L (same concentration as N-acetylglucosamine)
  hyaluronic acid production-promoting effect compared with N-acetylglucosamine: 6.5 times

## CCCCCOC1OC(COC(C)=O)C(OC(C)=O)C(OC(C)=O)C1NC(C)=O [Production Example 10, pentyl(2-acetamido-3,4,6-tri-O-acetyl-2-deoxy)β-D-glucopyranoside]
[1]; [2]
  hyaluronic acid production-promoting effect compared with N-acetylglucosamine: 3.8 times

## CCCCCCCCOC1OC(COC(C)=O)C(OC(C)=O)C(OC(C)=O)C1NC(C)=O [Production Example 11, octyl(2-acetamido-3,4,6-tri-O-acetyl-2-deoxy)β-D-glucopyranoside]
[1]; [2]
  hyaluronic acid production-promoting effect compared with N-acetylglucosamine: 2.8 times

## CC(=O)NC1C(OC/C=C(\C)CCC=C(C)C)OC(COC(C)=O)C(OC(C)=O)C1OC(C)=O [Production Example 12, geranyl(2-acetamido-3,4,6-tri-O-acetyl-2-deoxy)β-D-glucopyranoside]
[1]; [2]
  hyaluronic acid production-promoting effect compared with N-acetylglucosamine: 3.7 times

## CC(=O)NC1C(OC(C)=O)OC(COC(C)=O)C(OC(C)=O)C1OC(C)=O [formula (17), 2-acetamido-1,3,4,6-tetra-O-acetyl-2-deoxy-β-D-glucopyranoside]
[1]; 100 μmol/L (1/10 concentration of N-acetylglucosamine)
  hyaluronic acid production-promoting effect compared with N-acetylglucosamine: 3.0 times
